Experimental findings from ChEMBL document CHEMBL3991601, “The target landscape of clinical kinase drugs” (Science, 2017) are described below.

Experiment [1] addresses Ras-related protein Rab-6A (Homo sapiens, UniProt P20340).
Experiment [2] addresses T1, Dual specificity mitogen-activated protein kinase kinase 3 (Homo sapiens, UniProt P46734).
T1 sequence (P46734 whole entry): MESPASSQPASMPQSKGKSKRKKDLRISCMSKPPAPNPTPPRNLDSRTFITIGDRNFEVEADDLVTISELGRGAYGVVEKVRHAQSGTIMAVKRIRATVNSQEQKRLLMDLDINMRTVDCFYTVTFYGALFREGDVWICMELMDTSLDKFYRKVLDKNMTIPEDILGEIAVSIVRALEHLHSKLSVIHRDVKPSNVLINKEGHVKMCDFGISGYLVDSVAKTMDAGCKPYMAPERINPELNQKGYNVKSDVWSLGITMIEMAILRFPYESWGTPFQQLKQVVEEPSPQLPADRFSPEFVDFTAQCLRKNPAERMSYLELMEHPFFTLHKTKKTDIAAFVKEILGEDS

Experiment [3] concerns the target Mitogen-activated protein kinase 11 (Homo sapiens, UniProt Q15759).
Experiment [4] addresses Inosine-5'-monophosphate dehydrogenase 2 (Homo sapiens, UniProt P12268).
For another experiment, the target named is DNA topoisomerase 2-beta (Homo sapiens, UniProt Q02880).
Sequence of DNA topoisomerase 2-beta (Q02880 whole entry): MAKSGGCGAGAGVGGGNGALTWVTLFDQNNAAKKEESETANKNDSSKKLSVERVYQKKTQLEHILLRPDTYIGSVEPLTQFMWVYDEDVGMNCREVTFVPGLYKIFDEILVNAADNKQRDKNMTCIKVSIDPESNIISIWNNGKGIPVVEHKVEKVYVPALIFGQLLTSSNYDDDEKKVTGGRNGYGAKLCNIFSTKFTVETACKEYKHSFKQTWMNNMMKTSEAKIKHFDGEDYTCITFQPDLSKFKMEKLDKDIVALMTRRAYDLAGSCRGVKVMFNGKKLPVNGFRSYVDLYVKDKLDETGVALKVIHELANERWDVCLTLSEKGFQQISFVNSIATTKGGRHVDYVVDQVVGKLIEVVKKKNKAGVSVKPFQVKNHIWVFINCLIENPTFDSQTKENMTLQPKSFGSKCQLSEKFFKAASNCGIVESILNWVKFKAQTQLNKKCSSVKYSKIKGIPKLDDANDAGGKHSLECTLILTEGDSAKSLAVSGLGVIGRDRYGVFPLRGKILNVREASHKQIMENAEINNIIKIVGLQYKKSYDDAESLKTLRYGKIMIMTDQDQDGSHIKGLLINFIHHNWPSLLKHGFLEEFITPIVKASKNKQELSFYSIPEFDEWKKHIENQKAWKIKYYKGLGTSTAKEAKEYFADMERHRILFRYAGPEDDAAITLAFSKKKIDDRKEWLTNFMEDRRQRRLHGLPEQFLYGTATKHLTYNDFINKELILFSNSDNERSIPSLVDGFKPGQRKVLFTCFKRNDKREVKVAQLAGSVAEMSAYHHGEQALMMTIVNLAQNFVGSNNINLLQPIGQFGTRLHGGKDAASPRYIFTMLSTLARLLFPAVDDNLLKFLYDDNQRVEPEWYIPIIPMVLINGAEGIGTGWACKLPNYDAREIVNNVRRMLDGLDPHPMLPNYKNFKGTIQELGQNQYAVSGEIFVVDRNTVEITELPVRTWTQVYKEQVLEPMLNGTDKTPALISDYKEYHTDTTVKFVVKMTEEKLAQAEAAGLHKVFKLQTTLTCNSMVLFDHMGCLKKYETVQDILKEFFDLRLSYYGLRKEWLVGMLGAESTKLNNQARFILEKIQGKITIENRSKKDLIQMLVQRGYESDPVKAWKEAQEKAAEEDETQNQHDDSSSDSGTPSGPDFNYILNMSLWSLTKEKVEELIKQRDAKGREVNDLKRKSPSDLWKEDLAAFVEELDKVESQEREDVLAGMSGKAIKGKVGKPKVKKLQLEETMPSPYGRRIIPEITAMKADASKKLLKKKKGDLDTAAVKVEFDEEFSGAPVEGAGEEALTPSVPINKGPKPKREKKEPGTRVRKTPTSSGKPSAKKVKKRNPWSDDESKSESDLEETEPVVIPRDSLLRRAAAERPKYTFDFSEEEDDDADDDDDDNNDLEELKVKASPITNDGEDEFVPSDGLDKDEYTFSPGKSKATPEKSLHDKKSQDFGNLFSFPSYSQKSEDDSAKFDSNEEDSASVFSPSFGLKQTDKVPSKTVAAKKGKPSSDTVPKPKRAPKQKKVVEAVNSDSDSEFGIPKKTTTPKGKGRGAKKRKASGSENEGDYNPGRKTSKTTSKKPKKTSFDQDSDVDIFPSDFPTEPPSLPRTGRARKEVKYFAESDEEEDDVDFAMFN
For experiment [5], the target named is T2, Breakpoint cluster region protein (Homo sapiens, UniProt P11274).
T2 sequence (P11274 whole entry): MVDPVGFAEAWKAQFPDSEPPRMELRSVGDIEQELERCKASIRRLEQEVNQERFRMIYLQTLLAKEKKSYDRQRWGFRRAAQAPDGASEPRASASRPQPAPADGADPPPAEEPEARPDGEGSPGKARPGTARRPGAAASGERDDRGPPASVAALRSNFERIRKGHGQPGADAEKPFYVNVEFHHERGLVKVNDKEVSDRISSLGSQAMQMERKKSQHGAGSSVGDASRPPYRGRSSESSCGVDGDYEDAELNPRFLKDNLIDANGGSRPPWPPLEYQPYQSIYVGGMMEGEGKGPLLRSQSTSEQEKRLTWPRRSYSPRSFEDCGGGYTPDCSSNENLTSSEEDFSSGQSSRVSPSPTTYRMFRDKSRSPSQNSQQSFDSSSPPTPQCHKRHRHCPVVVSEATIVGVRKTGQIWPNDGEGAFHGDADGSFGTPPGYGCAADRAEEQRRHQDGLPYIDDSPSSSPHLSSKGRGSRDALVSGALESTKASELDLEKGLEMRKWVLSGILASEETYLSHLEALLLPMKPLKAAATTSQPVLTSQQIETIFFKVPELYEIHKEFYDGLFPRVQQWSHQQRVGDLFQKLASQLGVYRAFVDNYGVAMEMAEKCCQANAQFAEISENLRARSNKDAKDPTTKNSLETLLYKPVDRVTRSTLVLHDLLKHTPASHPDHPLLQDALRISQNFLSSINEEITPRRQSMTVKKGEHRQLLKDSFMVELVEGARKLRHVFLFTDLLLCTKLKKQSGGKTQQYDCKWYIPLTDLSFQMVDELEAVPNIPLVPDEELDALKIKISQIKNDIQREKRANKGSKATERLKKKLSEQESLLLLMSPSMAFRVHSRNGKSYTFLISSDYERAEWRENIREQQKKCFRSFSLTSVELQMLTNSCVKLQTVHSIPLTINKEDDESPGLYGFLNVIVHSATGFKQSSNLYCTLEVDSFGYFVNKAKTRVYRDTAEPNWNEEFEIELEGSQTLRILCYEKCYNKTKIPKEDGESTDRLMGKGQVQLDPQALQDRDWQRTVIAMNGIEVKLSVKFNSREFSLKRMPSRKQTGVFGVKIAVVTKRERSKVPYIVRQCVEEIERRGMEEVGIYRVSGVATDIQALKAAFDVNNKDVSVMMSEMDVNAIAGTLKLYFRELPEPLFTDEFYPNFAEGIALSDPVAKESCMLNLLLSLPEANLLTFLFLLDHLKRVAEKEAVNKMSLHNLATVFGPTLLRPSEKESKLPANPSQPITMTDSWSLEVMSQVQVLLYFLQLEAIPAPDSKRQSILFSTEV

Experiment [6] has as its target U5 small nuclear ribonucleoprotein 200 kDa helicase (Homo sapiens, UniProt O75643).
Experiment [7] addresses Cyclin-dependent kinase 7 (Homo sapiens, UniProt P50613).
Experiment [8] has as its target cAMP-dependent protein kinase catalytic subunit beta (Homo sapiens, UniProt P22694).
The target of experiment [9] is Protein kinase C alpha type (Homo sapiens, UniProt P17252).
For experiment [10], the target named is T3, Serine/threonine-protein kinase Nek9 (Homo sapiens, UniProt Q8TD19).
T3 sequence (Q8TD19 whole entry): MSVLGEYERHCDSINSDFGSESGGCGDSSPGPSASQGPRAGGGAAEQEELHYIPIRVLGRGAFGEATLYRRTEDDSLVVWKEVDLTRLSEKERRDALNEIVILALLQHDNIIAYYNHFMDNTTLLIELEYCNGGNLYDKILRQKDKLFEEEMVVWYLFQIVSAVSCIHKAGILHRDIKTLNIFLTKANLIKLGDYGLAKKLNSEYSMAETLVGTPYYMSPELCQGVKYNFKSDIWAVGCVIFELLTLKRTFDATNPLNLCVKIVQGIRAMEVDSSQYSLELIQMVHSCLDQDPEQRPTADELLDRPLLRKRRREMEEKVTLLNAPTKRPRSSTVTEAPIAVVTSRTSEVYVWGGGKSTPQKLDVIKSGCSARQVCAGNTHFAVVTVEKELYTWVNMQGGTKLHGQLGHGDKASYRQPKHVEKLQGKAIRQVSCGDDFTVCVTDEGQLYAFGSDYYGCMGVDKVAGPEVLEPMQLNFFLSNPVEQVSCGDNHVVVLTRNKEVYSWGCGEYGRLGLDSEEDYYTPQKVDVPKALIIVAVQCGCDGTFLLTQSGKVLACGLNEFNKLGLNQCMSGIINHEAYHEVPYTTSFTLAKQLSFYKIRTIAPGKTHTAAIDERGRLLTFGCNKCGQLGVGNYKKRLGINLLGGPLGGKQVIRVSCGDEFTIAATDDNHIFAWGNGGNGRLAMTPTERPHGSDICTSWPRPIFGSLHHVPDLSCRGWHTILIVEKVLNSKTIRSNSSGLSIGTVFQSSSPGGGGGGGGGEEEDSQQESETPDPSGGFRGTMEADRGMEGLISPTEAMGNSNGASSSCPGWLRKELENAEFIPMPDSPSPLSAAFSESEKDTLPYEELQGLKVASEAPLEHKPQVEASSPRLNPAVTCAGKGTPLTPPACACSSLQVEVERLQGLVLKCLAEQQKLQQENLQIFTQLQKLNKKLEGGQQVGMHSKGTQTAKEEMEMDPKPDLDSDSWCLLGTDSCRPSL

Active and inactive are the calls of the source. Bounds are passed on as bounds.
Note: in the data inactive means no Kd found up to 30 µM.

Sequence of Mitogen-activated protein kinase 11 (Q15759 whole entry): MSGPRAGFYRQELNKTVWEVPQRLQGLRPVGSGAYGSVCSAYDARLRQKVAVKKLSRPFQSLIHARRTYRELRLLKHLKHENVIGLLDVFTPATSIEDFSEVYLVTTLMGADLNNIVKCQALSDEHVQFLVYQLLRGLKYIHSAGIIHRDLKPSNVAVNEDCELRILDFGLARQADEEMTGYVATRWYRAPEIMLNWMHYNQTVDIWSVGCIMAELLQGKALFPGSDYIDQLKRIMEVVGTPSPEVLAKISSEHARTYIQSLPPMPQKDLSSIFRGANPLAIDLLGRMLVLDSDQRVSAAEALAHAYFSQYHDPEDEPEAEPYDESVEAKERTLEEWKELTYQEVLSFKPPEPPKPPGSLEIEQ
Sequence of Cyclin-dependent kinase 7 (P50613 whole entry): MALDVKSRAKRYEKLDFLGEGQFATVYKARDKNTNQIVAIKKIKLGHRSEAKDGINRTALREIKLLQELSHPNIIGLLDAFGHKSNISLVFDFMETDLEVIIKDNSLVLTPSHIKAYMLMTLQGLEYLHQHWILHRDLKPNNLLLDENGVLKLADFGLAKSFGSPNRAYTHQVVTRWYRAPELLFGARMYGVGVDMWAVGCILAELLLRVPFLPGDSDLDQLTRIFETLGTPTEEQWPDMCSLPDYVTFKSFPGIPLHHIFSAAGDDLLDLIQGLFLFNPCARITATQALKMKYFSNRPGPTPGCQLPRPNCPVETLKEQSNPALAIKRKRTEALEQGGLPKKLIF
Sequence of U5 small nuclear ribonucleoprotein 200 kDa helicase (O75643 whole entry): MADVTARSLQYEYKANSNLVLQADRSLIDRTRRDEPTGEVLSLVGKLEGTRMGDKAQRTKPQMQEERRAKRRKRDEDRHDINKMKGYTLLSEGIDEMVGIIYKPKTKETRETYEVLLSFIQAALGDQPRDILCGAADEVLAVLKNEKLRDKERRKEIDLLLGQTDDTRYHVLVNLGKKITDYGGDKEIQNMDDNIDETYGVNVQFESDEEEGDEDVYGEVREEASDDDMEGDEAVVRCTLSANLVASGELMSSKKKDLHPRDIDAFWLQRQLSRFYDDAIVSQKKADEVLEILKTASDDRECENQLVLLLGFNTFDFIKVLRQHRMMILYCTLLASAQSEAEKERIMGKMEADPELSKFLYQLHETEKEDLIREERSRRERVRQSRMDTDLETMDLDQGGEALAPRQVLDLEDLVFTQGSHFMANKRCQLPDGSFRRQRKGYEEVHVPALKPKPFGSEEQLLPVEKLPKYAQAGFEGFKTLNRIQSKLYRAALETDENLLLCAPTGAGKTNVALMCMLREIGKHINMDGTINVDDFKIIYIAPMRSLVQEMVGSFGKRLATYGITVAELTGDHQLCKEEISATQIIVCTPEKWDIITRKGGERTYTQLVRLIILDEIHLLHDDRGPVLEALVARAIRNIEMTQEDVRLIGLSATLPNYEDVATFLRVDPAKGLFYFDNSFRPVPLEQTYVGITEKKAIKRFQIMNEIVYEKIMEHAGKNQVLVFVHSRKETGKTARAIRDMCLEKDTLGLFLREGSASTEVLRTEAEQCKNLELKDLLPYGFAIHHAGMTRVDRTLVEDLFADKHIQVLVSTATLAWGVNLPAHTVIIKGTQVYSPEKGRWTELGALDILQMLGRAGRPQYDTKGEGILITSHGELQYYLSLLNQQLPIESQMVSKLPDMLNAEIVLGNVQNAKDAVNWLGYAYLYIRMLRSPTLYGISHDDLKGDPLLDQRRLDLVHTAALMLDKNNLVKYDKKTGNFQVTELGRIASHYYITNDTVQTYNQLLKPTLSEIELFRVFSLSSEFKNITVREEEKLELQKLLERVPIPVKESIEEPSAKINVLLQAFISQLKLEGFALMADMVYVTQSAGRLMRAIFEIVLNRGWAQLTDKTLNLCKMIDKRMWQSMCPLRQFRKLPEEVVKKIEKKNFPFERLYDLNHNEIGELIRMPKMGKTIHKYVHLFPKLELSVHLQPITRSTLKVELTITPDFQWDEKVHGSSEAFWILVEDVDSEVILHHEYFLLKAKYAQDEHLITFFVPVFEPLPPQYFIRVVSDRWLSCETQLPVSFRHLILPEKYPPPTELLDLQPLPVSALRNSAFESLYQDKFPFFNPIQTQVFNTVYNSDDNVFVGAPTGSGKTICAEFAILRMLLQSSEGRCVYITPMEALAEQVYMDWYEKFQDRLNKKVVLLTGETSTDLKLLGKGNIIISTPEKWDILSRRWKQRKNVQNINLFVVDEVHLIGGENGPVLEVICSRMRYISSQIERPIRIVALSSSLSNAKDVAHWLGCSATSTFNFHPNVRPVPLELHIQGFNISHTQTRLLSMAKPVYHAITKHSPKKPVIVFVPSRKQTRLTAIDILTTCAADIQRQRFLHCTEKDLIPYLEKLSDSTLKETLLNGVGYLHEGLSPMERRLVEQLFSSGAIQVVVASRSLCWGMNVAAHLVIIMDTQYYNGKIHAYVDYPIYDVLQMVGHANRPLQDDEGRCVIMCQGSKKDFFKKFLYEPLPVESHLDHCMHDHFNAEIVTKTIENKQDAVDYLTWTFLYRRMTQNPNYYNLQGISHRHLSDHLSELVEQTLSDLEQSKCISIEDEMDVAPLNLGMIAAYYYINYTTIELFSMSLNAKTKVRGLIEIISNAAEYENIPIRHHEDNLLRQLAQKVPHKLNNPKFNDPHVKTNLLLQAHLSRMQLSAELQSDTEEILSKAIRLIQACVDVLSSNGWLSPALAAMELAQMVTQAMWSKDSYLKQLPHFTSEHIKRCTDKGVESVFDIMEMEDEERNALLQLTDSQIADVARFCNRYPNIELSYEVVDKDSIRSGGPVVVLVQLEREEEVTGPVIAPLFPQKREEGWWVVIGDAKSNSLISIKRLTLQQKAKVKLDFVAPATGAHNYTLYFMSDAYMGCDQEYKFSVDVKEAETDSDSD
Sequence of Ras-related protein Rab-6A (P20340 whole entry): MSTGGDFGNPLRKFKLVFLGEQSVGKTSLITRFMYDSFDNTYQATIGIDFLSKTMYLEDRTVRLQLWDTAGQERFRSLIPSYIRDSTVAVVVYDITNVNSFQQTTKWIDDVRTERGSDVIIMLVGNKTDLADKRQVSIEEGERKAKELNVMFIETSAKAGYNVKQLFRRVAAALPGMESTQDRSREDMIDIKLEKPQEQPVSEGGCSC

On to `CCNC(=O)C#Cc1ccc2c(c1)NC(=O)/C2=C(\Nc1ccc(CN(C)C)cc1)c1ccccc1`, for which the Kd (in experiment [1]; in experiment [2]; in [3]; in [4]; at DNA topoisomerase 2-beta; in [5]) was > 30 µM (inactive) throughout. Further, the Kd in experiment [6], in experiment [7], in experiment [8], in experiment [9] and in experiment [10] was > 30 µM (inactive) in each case.

In the case of `C=CC(=O)N1CCC[C@H](n2c(=O)n(-c3ccc(Oc4ccccc4)cc3)c3c(N)ncnc32)C1`, the Kd (in experiment [2]; in [3]; in experiment [4]; on DNA topoisomerase 2-beta; in [5]; in experiment [6]) was > 30 µM (inactive) each time. Also, the Kd in experiment [7], in experiment [8], in experiment [9] and in experiment [10] was > 30 µM (inactive) throughout.

For the molecule `Cc1nc2cc(-c3nn(C(C)C)c4ncnc(N)c34)ccc2o1`, the Kd (in experiment [1]; in [2]; in experiment [3]; in [4]; at DNA topoisomerase 2-beta; in experiment [5]) was > 30 µM (inactive) each time. Besides, the Kd (as a rule, the free concentration of one partner at which half of the binding sites on the other are occupied at equilibrium, for simple one-to-one binding) was > 30 µM (inactive) in [6]; > 30 µM (inactive) in experiment [7]; > 30 µM (inactive) in [8]; 21.8 µM (active) in experiment [9]; > 30 µM (inactive) in experiment [10].

`COCc1c(-c2ccc(NC(=O)Nc3cc(C(F)(F)F)ccc3F)c(F)c2)c2c(N)ncnn2c1CN1CCOCC1`: the Kd in [1] was > 30 µM (inactive); in experiment [2] it was > 30 µM (inactive); in experiment [3] it was > 30 µM (inactive); in [4], > 30 µM (inactive); at DNA topoisomerase 2-beta it was > 30 µM (inactive); in experiment [5] it was 4.21 µM (active). Further, the Kd in experiment [6], in experiment [7], in experiment [8], in [9] and in [10] was > 30 µM (inactive) each time.

`Cc1nc(NC(=O)N2CCC[C@H]2C(N)=O)sc1-c1ccnc(C(C)(C)C(F)(F)F)c1` [ALPELISIB]: the Kd (in [1]; in [2]; in experiment [4]; at DNA topoisomerase 2-beta; in experiment [5]; in experiment [6]) was > 30 µM (inactive) throughout. Moreover, the Kd in [7], in experiment [8], in experiment [9] and in [10] was > 30 µM (inactive) each time.

Take `O=C(Nc1c[nH]nc1-c1nc2cc(CN3CCOCC3)ccc2[nH]1)NC1CC1` [AT-9283]: the Kd was > 30 µM (inactive) in experiment [1]; > 30 µM (inactive) in [2]; > 30 µM (inactive) in [3]; > 30 µM (inactive) in experiment [4]; > 30 µM (inactive) on DNA topoisomerase 2-beta; 0.156 µM (active) in experiment [5]. For the same molecule, the Kd was > 30 µM (inactive) in [6], > 30 µM (inactive) in experiment [7] and 0.927 µM (active) in experiment [8].

As for `NC(=O)Nc1cc(-c2cccc(F)c2)sc1C(=O)N[C@H]1CCCNC1` [AZD-7762], the Kd (in experiment [1]; in experiment [2]; in experiment [3]; in experiment [4]; at DNA topoisomerase 2-beta; in experiment [6]) was > 30 µM (inactive) throughout. The Kd in experiment [7], in experiment [8], in [9] and in experiment [10] was > 30 µM (inactive) in each case.

As to `Cc1cc(C(=O)NOCCO)c(Nc2ccc(I)cc2F)n(C)c1=O` [AZD-8330], the Kd (in experiment [1]; in experiment [2]; in [4]; on DNA topoisomerase 2-beta; in experiment [5]; in [6]) was > 30 µM (inactive) in each case. The Kd in [7], in experiment [8], in [9] and in experiment [10] was > 30 µM (inactive) in each case.

As for `NC1(c2ccc(-c3nc4ccn5c(=O)[nH]nc5c4cc3-c3ccccc3)cc2)CCC1` [MK-2206], the Kd (in experiment [2]; in experiment [3]; in experiment [4]; on DNA topoisomerase 2-beta; in [5]; in [6]) was > 30 µM (inactive) each time. The Kd in experiment [7], in experiment [8], in [9] and in experiment [10] was > 30 µM (inactive) throughout.

`CNC(=O)c1cc(Oc2ccc(NC(=O)Nc3cc(C(C)(C)C)nn3-c3ccc4ncccc4c3)c(F)c2)ccn1` [REBASTINIB]: the Kd in experiment [1] is > 30 µM (inactive); in [2], > 30 µM (inactive); in experiment [3], > 30 µM (inactive); in experiment [4], > 30 µM (inactive); on DNA topoisomerase 2-beta it was > 30 µM (inactive); in experiment [5], 0.381 µM (active). In addition, the Kd in experiment [6], in experiment [7], in experiment [8] and in experiment [9] was > 30 µM (inactive) in each case.
